Test results as given in patent US11034659B2, “Pyrimidine derivative” (Daiichi Sankyo Company, Limited, priority 2016, dated 2021).
Structures can show the parent of a compound that is named as a salt.

Experiments:
[1] = test system: CuFi-1 cells; assay: Secretory activity for chloride ions (MQAE fluorescence) in CuFi-1 cells; type: cell-based; settings: Homo sapiens, CuFi-1, CuFi-1 cells, zinc final concentration 10 μM
Experimental: Measurement of the secretory activity for chloride ions was performed in accordance with a previous report (West and Molloy, 1996). CuFi-1 cells were plated on a 96 well plate in 3×10^4 cells/well and incubated for two nights. After removing the culture medium, 100 μL/well of N-(ethoxycarbonylmethyl)-6-methoxyquinolinium bromide (MQAE) (diluted with culture medium and the concentration adjusted to 5 mM) was added. After the addition of MQAE, the cells were incubated for one night so that the indicator was passively loaded. After the loading, the cells were washed two times with Assay buffer, and 100 μL/well of Assay buffer was added. The secretory capacity for chloride ions was measured using FlexStation 1 (fluorescence wavelength of Ex: 355 nm/Em: 460 nm). In order to measure the basic value, nothing was added for 34 seconds immediately after the start of the measurement. Then, at this point, 100 μL/well of the test compound and zinc (final concentration: 10 μM) diluted with Assay buffer, which is free of chloride ions, was added, and the measurement was continued for 86 seconds (total measurement time: 120 seconds). The secretory capacity for chloride ions was calculated by dividing the average of RFU values in 10 seconds between 110 seconds and 120 seconds after the start of the measurement with the average between 0 second and 34 seconds (the basic value). The secretory activity for chloride ions of the test compound (EC50 value) was calculated by obtaining the secretory capacity for chloride ions at each concentration of the serially diluted test compound, and determining a concentration of the test compound that provides a secretory capacity of 50% from two secretory capacities and concentrations sandwiching 50% of the maximum response of each compound.

[2] = target: T1, GPR39 (Homo sapiens, UniProt O43194); assay: Effects of GPR39 knockdown (siRNA) on chloride secretion in CuFi-1 cells; type: cell-based
T1 construct: endogenous in cells; host or cells: CuFi-1 cells
T1 sequence (O43194 1-453): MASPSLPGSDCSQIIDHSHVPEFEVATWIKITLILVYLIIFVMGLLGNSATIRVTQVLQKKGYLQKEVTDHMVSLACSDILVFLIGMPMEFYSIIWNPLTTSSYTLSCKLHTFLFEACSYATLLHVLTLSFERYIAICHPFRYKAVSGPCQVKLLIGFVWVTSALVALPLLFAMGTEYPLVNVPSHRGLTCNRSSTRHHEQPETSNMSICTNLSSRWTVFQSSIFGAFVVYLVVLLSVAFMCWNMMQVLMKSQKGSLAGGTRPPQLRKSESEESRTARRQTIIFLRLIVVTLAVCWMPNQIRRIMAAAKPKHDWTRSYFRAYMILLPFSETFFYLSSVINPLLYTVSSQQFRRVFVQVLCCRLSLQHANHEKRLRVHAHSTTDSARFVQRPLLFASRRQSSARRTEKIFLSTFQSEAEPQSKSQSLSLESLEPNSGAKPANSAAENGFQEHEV
Source text: FIG. 2 is a graph showing effects on the chloride secretory activity of each compound in CuFi-1 cells through siRNA treatment. The vertical axis is expressed as an increase in the rate of the average value of fluorescence values at five points between 110 and 120 seconds, relative to the average value of fluorescence values at 17 points between 1 and 34 seconds within the measurement time of 120 seconds. The graph is shown with the mean value (N=8) and the standard deviation.
In order to confirm that chloride ion secretion by the test compound observed in Test. Example 1 was induced via GPR39, GPR39 knockdown was conducted. CuFi-1 cells cultured in Pneumacult-EX (STEMCELL Technologies Inc.) were plated on a 96 well plate in 3×10^4 cells/100 μL/well. Then, human GPR39 siRNA (MISSION siRNA SASI_Hs02_00332000, SASI_Hs02_00332001, Sigma-Aldrich Co. LLC) or control siRNA (Ambion Silencer Select, Thermo Fisher Scientific Inc.) was added in 1 pmol/10 μL/well using Lipofectamine RNAiMAX (Thermo Fisher Scientific Inc.), and the cells were incubated for two nights. In order for the final concentration to be 5 mM, 10 μL/well of N-(ethoxycarbonylmethyl)-6-methoxyquinolinium bromide (MQAE) diluted with culture medium was added. After the addition of MQAE, the cells were incubated for one night so that the indicator was passively loaded. Hereafter, washing and measurement of the secretory capacity for chloride ions were conducted in the same way as Test Example 1. In addition, analysis on gene expression of GPR39 was performed using RNA extracted from wells to which the same method was carried out. Total RNA was extracted from cells using RNAiso Plus (Takara Bio Inc.), and purified using RNeasy Micro Kit (Qiagen). Then, cDNA was synthesized using High Capacity cDNA Reverse Transcription Kit (Thermo Fisher Scientific Inc.), and quantitative PCR was conducted using TaqMan Gene Expression Assays (human GPR39: Hs00230762_m1, human GAPDH: Hs02758991_g1, Thermo Fisher Scientific Inc.) and THUNDERBIRD Probe qPCR Mix (TOYOBO CO., LTD.). Through the calibration curve method, a relative expression level of GPR39 compensated with GAPDH was calculated.

| Structure (SMILES) | EC50 [1] | chloride ion secretion versus control siRNA ([2]; GPR39 knockdown with siGPR39-1) | chloride ion secretion versus control siRNA ([2]; GPR39 knockdown with siGPR39-2) |
| --- | --- | --- | --- |
| COc1nc(C(=O)O)nc(C(C)C)c1Cc1ccc(Cl)cc1Cl [Example 71] | 30.2 nM |  |  |
| COc1nc(C(=O)O)nc(C(C)C)c1Cc1ccc(C(F)(F)F)cc1Cl [Example 72] | 2.6 nM |  |  |
| COc1nc(C(=O)O)nc(C)c1Cc1ccccc1C(C)C [Example 73] | 35.2 nM |  |  |
| Cc1nc(C(=O)O)nc(OC(C)C)c1Cc1ccccc1Cl [Example 74, 5-(2-Chlorobenzyl)-4-isopropoxy-6-methylpyrimidine-2-carboxylic acid] | 33.4 nM |  |  |
| CSc1nc(C(=O)O)nc(C)c1Cc1ccc(Cl)cc1Cl [Example 75, 5-(2,4-Dichlorobenzyl)-4-methyl-6-(methylthio)pyrimidine-2-carboxylic acid] | 3.7 nM |  |  |
| CSc1nc(C(=O)O)nc(C)c1Cc1ccccc1Cl [Example 76] | 15.2 nM |  |  |
| CCc1nc(C(=O)O)nc(SC)c1Sc1ccc(Cl)cc1Cl [Example 77] | 14.6 nM |  |  |
| CCc1nc(C(=O)O)nc(SC)c1Cc1ccccc1Cl [Example 78] | 4.6 nM |  |  |
| CCSc1nc(C(=O)O)nc(C)c1Cc1ccc(Cl)cc1Cl [Example 79, 5-(2,4-Dichlorobenzyl)-4-(ethylthio)-6-methylpyrimidine-2-carboxylic acid] | 6.6 nM |  |  |
| CCSc1nc(C(=O)O)nc(C)c1Oc1ccc(Cl)cc1Cl [Example 80] | 49.4 nM |  |  |
| CCSc1nc(C(=O)O)nc(C)c1Cc1ccc(C#N)cc1Cl [Example 81] | 5.5 nM |  |  |
| Cc1nc(C(=O)O)nc(SCCO)c1Sc1ccc(Cl)cc1Cl [Example 82] | 30.8 nM |  |  |
| Cc1nc(C(=O)O)nc(SC(C)C)c1Sc1ccccc1Cl [Example 83, 5-((2-Chlorophenyl)thio)-4-(isopropylthio)-6-methylpyrimidine-2-carboxylic acid hydrochloride] | 50.7 nM |  |  |
| Cc1nc(C(=O)O)nc(SC(C)C)c1Cc1ccccc1Cl [Example 84] | 10.4 nM |  |  |
| CSc1nc(C(=O)O)nc(C)c1Nc1ccccc1Cl [Example 85, 5-((2-Chlorophenyl)amino)-4-methyl-6-(methylthio)pyrimidine-2-carboxylic acid hydrochloride] | 30.2 nM |  |  |
| CCNc1nc(C(=O)O)nc(C)c1Nc1ccccc1Cl [Example 86, 5-((2-Chlorophenyl)amino)-4-(ethylamino)-6-methylpyrimidine-2-carboxylic acid hydrochloride] | 13.1 nM |  |  |
| CNc1nc(C(=O)O)nc(C)c1Cc1ccccc1Cl [Example 87, 5-(2-Chlorobenzyl)-4-methyl-6-(methylamino)pyrimidine-2-carboxylic acid] | 8.2 nM |  |  |
| Cc1nc(C(=O)O)nc(Cc2ccccc2Cl)c1Cc1ccccc1Cl [Example 88, 4,5-Bis(2-chlorobenzyl)-6-methylpyrimidine-2-carboxylic acid] | 7.1 nM |  |  |
| Cc1nc(C(=O)O)nc(OCc2cccc(C#N)c2)c1Cc1ccccc1Cl [Example 89, 5-(2-Chlorobenzyl)-4-((3-cyanobenzyl)oxy)-6-methylpyrimidine-2-carboxylic acid] | 5.1 nM |  |  |

| Structure (SMILES) | EC50 [1] | chloride ion secretion versus control siRNA ([2]; GPR39 knockdown with siGPR39-1) | chloride ion secretion versus control siRNA ([2]; GPR39 knockdown with siGPR39-2) |
| --- | --- | --- | --- |
| Cc1nc(C(=O)O)nc(OCc2ccccc2)c1Cc1ccccc1Cl [Example 90] | 6.4 nM |  |  |
| Cc1nc(C(=O)O)nc(O[C@H]2C[C@H](C#N)C2)c1Cc1ccccc1Cl [Example 91] | 13.2 nM |  |  |
| Cc1nc(C(=O)O)nc(O[C@H]2C[C@@H](C#N)C2)c1Cc1ccccc1Cl [Example 92] | 5.1 nM |  |  |
| Cc1nc(C(=O)O)nc(OCc2cccnc2)c1Cc1ccccc1Cl [Example 93] | 2.2 nM |  |  |
| Cc1nc(C(=O)O)nc(OCc2ccncc2)c1Cc1ccccc1Cl [Example 94] | 2.2 nM |  |  |
| Cc1nc(C(=O)O)nc(OCc2ccccn2)c1Cc1ccccc1Cl [Example 95] | 3.3 nM |  |  |
| Cc1ccc(COc2nc(C(=O)O)nc(C)c2Cc2ccccc2Cl)cn1 [Example 96] | 2.4 nM |  |  |
| Cc1nc(C(=O)O)nc(OCc2ccc(F)cc2)c1Cc1ccccc1Cl [Example 97] | 5.7 nM |  |  |
| Cc1nc(C(=O)O)nc(OCc2cccc(F)c2)c1Cc1ccccc1Cl [Example 98] | 13.5 nM |  |  |
| Cc1nc(C(=O)O)nc(OCc2ccccc2F)c1Cc1ccccc1Cl [Example 99] | 5.1 nM |  |  |
| Cc1nc(C(=O)O)nc(OCc2ccc(F)cc2F)c1Cc1ccccc1Cl [Example 100] | 11.1 nM |  |  |
| Cc1nc(C(=O)O)nc(CCc2ccncc2)c1Cc1ccccc1Cl [Example 101, 5-(2-Chlorobenzyl)-4-methyl-6-(2-(pyridin-4-yl)ethyl)pyrimidine-2-carboxylic acid] | 8.9 nM |  |  |
| Cc1nc(C(=O)O)nc(CCc2cccnc2)c1Cc1ccccc1Cl [Example 102] | 5.2 nM |  |  |
| Cc1nc(C(=O)O)nc(C)c1Cc1ccccc1Cl [Example 103, 5-(2-Chlorobenzyl)-4,6-dimethylpyrimidine-2-carboxylic acid] | 20.8 nM |  |  |
| Cc1nc(C(=O)O)nc(C)c1Cc1ccc(Cl)cc1Cl [Example 104] | 9.9 nM |  |  |
| CNc1nc(-c2nnn[nH]2)nc(C)c1Cc1ccc(Cl)cc1Cl [Example 105, 5-(2,4-Dichlorobenzyl)-N,6-dimethyl-2-(1H-tetrazol-5-yl)pyrimidin-4-amine] | 2.1 nM |  |  |
| CNc1nc(-c2nnn[nH]2)nc(C)c1Sc1ccc(Cl)cc1Cl [Example 106] | 2.9 nM |  |  |
| COc1nc(C(=O)O)nc(C)c1Cc1ccccc1Cl [Example 107, 5-(2-Chlorobenzyl)-4-methoxy-6-methylpyrimidine-2-carboxylic acid 3/2-hydrate] |  | 17% | 37% |
| O=c1ccn([C@@H]2O[C@H](COP(=O)(O)OP(=O)(O)OP(=O)(O)O)[C@@H](O)[C@H]2O)c(=O)[nH]1 [UTP, reference compound] |  | 111% | 89% |
